Assay results taken from PMC7038975 (Nucleic Acids Research, 2019).

Target: dihydropyrimidinase (DHP) (Homo sapiens, UniProt Q14117)
Assay: HPLC assay of […],6-dihydrouracil
Format: biochemical

Chain of dihydropyrimidinase (DHP) (Q14117 whole entry): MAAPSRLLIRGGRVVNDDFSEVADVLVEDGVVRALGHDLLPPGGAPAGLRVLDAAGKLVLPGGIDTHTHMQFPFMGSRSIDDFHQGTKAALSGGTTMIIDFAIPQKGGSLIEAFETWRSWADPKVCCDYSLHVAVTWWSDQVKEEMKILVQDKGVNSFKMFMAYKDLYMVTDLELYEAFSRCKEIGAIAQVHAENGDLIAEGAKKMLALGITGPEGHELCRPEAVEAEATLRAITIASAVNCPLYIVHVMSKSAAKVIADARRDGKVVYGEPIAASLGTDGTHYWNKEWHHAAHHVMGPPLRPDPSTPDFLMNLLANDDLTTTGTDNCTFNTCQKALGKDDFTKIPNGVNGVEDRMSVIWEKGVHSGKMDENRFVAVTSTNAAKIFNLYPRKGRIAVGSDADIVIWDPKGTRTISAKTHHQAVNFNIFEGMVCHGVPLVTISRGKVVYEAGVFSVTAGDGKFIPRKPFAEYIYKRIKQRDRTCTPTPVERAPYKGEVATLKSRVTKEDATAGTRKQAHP

## O=C1c2c(O)cc(O)cc2O[C@H](c2cc(O)c(O)c(O)c2)[C@H]1O [dihydromyricetin]
  IC50: ~6 µM
